Assay results taken from publication PMC4829233, “Identification of Novel Chemical Scaffolds Inhibiting Trypanothione Synthetase from Pathogenic Trypanosomatids” (PLoS Neglected Tropical Diseases, 2016).
Where “and” joins values, the source holds several entries; their conditions need not be identical. Equal entries are not always repeated.

Experiments:
[1] = molecular target: TcTryS (Trypanosoma cruzi trypanothione synthetase) (Trypanosoma cruzi, UniProt Q9GT49); assay: biochemical; format: biochemical; details: for remaining activity at 30 µM: read-out: TcTryS Activity ± 2σn-1 (%); for inhibition at 30 µM: read-out: % TcTryS inhibition ± 2σn-1
TcTryS (Trypanosoma cruzi trypanothione synthetase), sequence (Q9GT49 whole entry): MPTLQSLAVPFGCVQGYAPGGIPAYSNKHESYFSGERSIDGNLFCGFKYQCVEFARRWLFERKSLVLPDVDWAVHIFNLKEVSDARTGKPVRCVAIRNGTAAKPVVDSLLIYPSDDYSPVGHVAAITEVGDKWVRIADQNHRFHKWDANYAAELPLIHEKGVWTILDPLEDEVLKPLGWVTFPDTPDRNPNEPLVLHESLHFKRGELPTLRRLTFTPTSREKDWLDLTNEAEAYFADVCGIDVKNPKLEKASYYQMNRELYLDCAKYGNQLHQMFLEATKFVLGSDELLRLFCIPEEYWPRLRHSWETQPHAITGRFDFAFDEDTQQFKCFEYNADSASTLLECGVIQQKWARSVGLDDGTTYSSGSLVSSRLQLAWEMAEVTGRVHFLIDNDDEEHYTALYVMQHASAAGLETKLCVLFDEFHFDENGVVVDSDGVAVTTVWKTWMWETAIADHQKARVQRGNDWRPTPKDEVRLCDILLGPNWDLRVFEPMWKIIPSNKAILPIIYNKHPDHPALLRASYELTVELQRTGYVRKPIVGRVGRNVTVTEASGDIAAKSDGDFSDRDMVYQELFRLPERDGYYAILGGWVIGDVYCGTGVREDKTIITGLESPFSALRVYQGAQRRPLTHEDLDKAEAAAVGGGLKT

[2] = molecular target: LiTryS (Leishmania infantum trypanothione synthetase) (Leishmania infantum, UniProt A4I2Z3); assay: biochemical; format: biochemical; details: for activity at 30 µM: read-out: LiTryS Activity ± 2σn-1 (%); for inhibition at 30 µM: read-out: % LiTryS inhibition ± 2σn-1
LiTryS (Leishmania infantum trypanothione synthetase), sequence (A4I2Z3 1-652): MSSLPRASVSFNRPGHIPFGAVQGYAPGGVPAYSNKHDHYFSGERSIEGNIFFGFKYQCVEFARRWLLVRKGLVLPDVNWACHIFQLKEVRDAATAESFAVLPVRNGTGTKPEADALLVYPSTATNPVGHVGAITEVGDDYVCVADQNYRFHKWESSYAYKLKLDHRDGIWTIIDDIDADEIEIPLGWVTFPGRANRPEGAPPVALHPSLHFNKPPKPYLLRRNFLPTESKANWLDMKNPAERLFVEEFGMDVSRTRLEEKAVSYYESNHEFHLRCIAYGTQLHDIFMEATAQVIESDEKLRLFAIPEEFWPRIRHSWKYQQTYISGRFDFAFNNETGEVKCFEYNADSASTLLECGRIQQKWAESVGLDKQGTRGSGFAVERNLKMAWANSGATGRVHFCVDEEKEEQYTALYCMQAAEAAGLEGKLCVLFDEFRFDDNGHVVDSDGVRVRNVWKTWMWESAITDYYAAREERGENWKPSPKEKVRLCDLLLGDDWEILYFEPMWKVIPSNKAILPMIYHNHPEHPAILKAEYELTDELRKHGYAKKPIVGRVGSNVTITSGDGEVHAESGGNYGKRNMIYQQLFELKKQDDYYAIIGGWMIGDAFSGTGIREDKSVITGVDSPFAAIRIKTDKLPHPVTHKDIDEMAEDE

[3] = molecular target: TbTryS (Trypanosoma brucei trypanothione synthetase) (Trypanosoma brucei brucei, UniProt Q8IEX1); assay: biochemical; details: for activity at 30 µM: read-out: TbTryS Activity ± 2σn-1 (%); for inhibition at 30 µM: read-out: % TbTryS inhibition ± 2σn-1
TbTryS (Trypanosoma brucei trypanothione synthetase), sequence (Q8IEX1 1-627): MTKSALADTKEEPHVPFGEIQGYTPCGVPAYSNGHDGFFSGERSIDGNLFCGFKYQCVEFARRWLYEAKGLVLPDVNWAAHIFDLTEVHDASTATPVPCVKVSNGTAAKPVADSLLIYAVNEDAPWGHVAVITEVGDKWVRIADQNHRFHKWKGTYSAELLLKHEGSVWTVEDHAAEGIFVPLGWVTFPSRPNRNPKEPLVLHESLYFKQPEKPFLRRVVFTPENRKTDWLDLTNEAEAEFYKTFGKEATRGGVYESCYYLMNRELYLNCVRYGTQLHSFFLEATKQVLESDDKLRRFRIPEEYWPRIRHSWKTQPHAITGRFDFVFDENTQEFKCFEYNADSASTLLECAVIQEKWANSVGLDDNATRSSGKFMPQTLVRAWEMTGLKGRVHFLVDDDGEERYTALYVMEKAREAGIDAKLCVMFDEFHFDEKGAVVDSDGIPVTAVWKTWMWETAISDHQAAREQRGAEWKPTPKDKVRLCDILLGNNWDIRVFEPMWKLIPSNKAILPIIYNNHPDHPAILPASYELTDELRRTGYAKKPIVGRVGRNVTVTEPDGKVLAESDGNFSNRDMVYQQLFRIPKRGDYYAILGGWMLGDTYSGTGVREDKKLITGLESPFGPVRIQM

[4] = test system: bloodstream Trypanosoma brucei brucei; assay: Proliferation/cytotoxicity assay, infective T. b. brucei; format: cell-based; details: bloodstream T. b. brucei, 24 h, read-out: T. b. Brucei EC50

In the case of [O-][n+]1onc2cc(Cl)ccc21 [Compound J12], the “TcTryS Activity ± 2σn-1 (%)” value [1] is reported as 63.7 ± 0.5; 4%, the “LiTryS Activity ± 2σn-1 (%)” value [2] is reported as 93.8 ± 3.9; 4% and the “TbTryS Activity ± 2σn-1 (%)” value [3] is reported as 92.7 ± 2.7; 3%.
In the case of [O-][n+]1onc2cc(Cl)c(Cl)cc21 [Compound J13], the “TcTryS Activity ± 2σn-1 (%)” value [1] is reported as 84.9 ± 4.4; 3%, the “LiTryS Activity ± 2σn-1 (%)” value [2] is reported as 102.2 ± 7.8; 3% and the “TbTryS Activity ± 2σn-1 (%)” value [3] is reported as 88.9 ± 2.7; 3%.
For COc1ccc2c(c1)no[n+]2[O-] [Compound J14], the “TcTryS Activity ± 2σn-1 (%)” value [1] was 77.2 ± 4.4; 4%, the “LiTryS Activity ± 2σn-1 (%)” value [2] was 96.1 ± 7.3; 4% and the “TbTryS Activity ± 2σn-1 (%)” value [3] was 93.1 ± 5.6; 4%.
For O=[N+]([O-])c1ccc2c(c1)no[n+]2[O-] [Compound J16], the “TcTryS Activity ± 2σn-1 (%)” value [1] was 76.5 ± 1.0; 3%, the “LiTryS Activity ± 2σn-1 (%)” value [2] was 80.1 ± 9.2; 4% and the “TbTryS Activity ± 2σn-1 (%)” value [3] was 92.6 ± 4.9; 3%.
[O-][n+]1onc2cc(C(F)(F)F)ccc21 [Compound J25] was tested, and the “TcTryS Activity ± 2σn-1 (%)” value [1] was 81.8 ± 2.2; 3%, the “LiTryS Activity ± 2σn-1 (%)” value [2] was 110.7 ± 2.4; 3% and the “TbTryS Activity ± 2σn-1 (%)” value [3] was 98.4 ± 4.2; 3%.
In the case of [O-][n+]1onc2c(Cl)cc(Cl)cc21 [Compound J26], the “TcTryS Activity ± 2σn-1 (%)” value [1] is reported as 95.8 ± 1.1; 3%, the “LiTryS Activity ± 2σn-1 (%)” value [2] is reported as 88.0 ± 1.0; 3% and the “TbTryS Activity ± 2σn-1 (%)” value [3] is reported as 104.9 ± 5.7; 3%.
With [O-][n+]1onc2cc(I)ccc21 [Compound J27] the “TcTryS Activity ± 2σn-1 (%)” value [1] was 90.1 ± 5.9; 3%, the “LiTryS Activity ± 2σn-1 (%)” value [2] was 71.0 ± 8.0; 3% and the “TbTryS Activity ± 2σn-1 (%)” value [3] was 98.2 ± 5.6; 3%.
In the case of [O-][n+]1onc2cc(F)ccc21 [Compound J31], the “TcTryS Activity ± 2σn-1 (%)” value [1] is reported as 118.8 ± 6.1; 4 (1.00) %, the remaining activity at 30 µM [1] is reported as 119% and the activity at 30 µM [2] is reported as 84.1 ± 0.001%. The activity at 30 µM [3] was 96.2 ± 3.7%.
For COc1cc2no[n+]([O-])c2cc1OC [Compound J32], the “TcTryS Activity ± 2σn-1 (%)” value [1] was 98.1 ± 6.4; 4%, the “LiTryS Activity ± 2σn-1 (%)” value [2] was 72.7 ± 7.2; 4% and the “TbTryS Activity ± 2σn-1 (%)” value [3] was 93.4 ± 4.5; 4%.
[O-][n+]1onc2cc(Br)ccc21 [Compound J33] was tested, and the “TcTryS Activity ± 2σn-1 (%)” value [1] was 98.1 ± 4.0; 3%, the “LiTryS Activity ± 2σn-1 (%)” value [2] was 76.0 ± 6.8; 3% and the “TbTryS Activity ± 2σn-1 (%)” value [3] was 96.5 ± 6.3; 3%.
In the case of [O-][n+]1onc2cc(F)c(F)cc21 [Compound J40], the “TcTryS Activity ± 2σn-1 (%)” value [1] is reported as 87.4 ± 1.6; 3%, the “LiTryS Activity ± 2σn-1 (%)” value [2] is reported as 92.9 ± 5.1; 4% and the “TbTryS Activity ± 2σn-1 (%)” value [3] is reported as 85.0 ± 1.4; 2%.
c1ccc(CNCCCCCCCCNCc2ccccc2)cc1 [EAP1-5 (I)] was tested, and the “TcTryS Activity ± 2σn-1 (%)” value [1] was 82.8 ± 5.2; 3%, the “LiTryS Activity ± 2σn-1 (%)” value [2] was 62.8 ± 3.9; 4% and the “TbTryS Activity ± 2σn-1 (%)” value [3] was 78.3 ± 3.6; 4%.
For c1ccc(CNCCCCCCCCCCCCNCc2ccccc2)cc1 [EAP1-9], the “TcTryS Activity ± 2σn-1 (%)” value [1] was 87.3 ± 5.4; 4%, the “LiTryS Activity ± 2σn-1 (%)” value [2] was 89.6 ± 9.4; 3% and the “TbTryS Activity ± 2σn-1 (%)” value [3] was 74.9 ± 4.1; 4%.
COc1ccc(CNCCCCCCCCCCCCNCc2ccc(OC)cc2)cc1 [EAP1-11] was tested, and the “TcTryS Activity ± 2σn-1 (%)” value [1] was 82.8 ± 7.6; 3%, the “LiTryS Activity ± 2σn-1 (%)” value [2] was 62.0 ± 7.8; 4% and the “TbTryS Activity ± 2σn-1 (%)” value [3] was 77.2 ± 4.5; 5 (1.30) %.
CC(C)c1ccc(CNCCCCCCCCNCc2ccc(C(C)C)cc2)cc1 [EAP1-37] was tested, and the “TcTryS Activity ± 2σn-1 (%)” value [1] was 65.6 ± 5.3; 4 (1.46) %, the “LiTryS Activity ± 2σn-1 (%)” value [2] was 77.4 ± 7.9; 9 (1.284) % and the “TbTryS Activity ± 2σn-1 (%)” value [3] was 56.8 ± 5.6; 3 (1.43) %.
With Fc1ccc(CNCCCCCCCCNCc2ccc(F)cc2)cc1 [EAP1-39] the “TcTryS Activity ± 2σn-1 (%)” value [1] was 96.0 ± 4.0; 4%, the “LiTryS Activity ± 2σn-1 (%)” value [2] was 69.6 ± 5.5; 4% and the “TbTryS Activity ± 2σn-1 (%)” value [3] was 85.7 ± 2.0; 3%.
Clc1ccc(CNCCCCCCCCNCc2ccc(Cl)cc2)cc1 [EAP1-43] was tested, and the “TcTryS Activity ± 2σn-1 (%)” value [1] was 87.9 ± 4.7; 4%, the “LiTryS Activity ± 2σn-1 (%)” value [2] was 78.0 ± 5.9; 4% and the “TbTryS Activity ± 2σn-1 (%)” value [3] was 69.7 ± 3.0; 4%.
In the case of Cc1ccc(CNCCCCCCCCNCc2ccc(C)cc2)cc1 [EAP1-45], the “TcTryS Activity ± 2σn-1 (%)” value [1] is reported as 92.3 ± 4.5; 4%, the “LiTryS Activity ± 2σn-1 (%)” value [2] is reported as 91.9 ± 2.7; 3% and the “TbTryS Activity ± 2σn-1 (%)” value [3] is reported as 78.4 ± 0.6; 3%.
In the case of Brc1ccc(CNCCCCCCCCNCc2ccc(Br)cc2)cc1 [EAP1-46], the “TcTryS Activity ± 2σn-1 (%)” value [1] is reported as 93.7 ± 7.6; 3%, the “LiTryS Activity ± 2σn-1 (%)” value [2] is reported as 61.8 ± 3.9; 3% and the “TbTryS Activity ± 2σn-1 (%)” value [3] is reported as 73.4 ± 1.7; 3%.
Fc1ccc(CNCCCCCCCCCCNCc2ccc(F)cc2)cc1 [EAP1-51] was tested, and the “TcTryS Activity ± 2σn-1 (%)” value [1] was 87.5 ± 4.6; 4%, the “LiTryS Activity ± 2σn-1 (%)” value [2] was 80.6 ± 2.7; 4% and the “TbTryS Activity ± 2σn-1 (%)” value [3] was 81.0 ± 7.5; 3%.
With Clc1ccc(CNCCCCCCCCCCNCc2ccc(Cl)cc2)cc1 [EAP1-53] the “TcTryS Activity ± 2σn-1 (%)” value [1] was 73.3 ± 2.3; 4%, the “LiTryS Activity ± 2σn-1 (%)” value [2] was 69 ± 5.7; 4 (1.305) % and the “TbTryS Activity ± 2σn-1 (%)” value [3] was 63.9 ± 4.1; 4 (1.34) %.
For Cc1ccc(CNCCCCCCCCCCNCc2ccc(C)cc2)cc1 [EAP1-55], the “TcTryS Activity ± 2σn-1 (%)” value [1] was 68.6 ± 3.9; 2%, the “LiTryS Activity ± 2σn-1 (%)” value [2] was 71.5 ± 5.8; 4% and the “TbTryS Activity ± 2σn-1 (%)” value [3] was 61.8 ± 4.8; 3%.
With Brc1ccc(CNCCCCCCCCCCNCc2ccc(Br)cc2)cc1 [EAP1-57] the “TcTryS Activity ± 2σn-1 (%)” value [1] was 81.2 ± 4.2; 3%, the “LiTryS Activity ± 2σn-1 (%)” value [2] was 75.2 ± 4.5; 3% and the “TbTryS Activity ± 2σn-1 (%)” value [3] was 62.6 ± 3.6; 3 (1.26) %.
Clc1ccc(CNCCCCCCCCCCCCNCc2ccc(Cl)cc2)cc1 [EAP1-67] was tested, and the “% TcTryS inhibition ± 2σn-1” value [1] was 23.8 ± 6.6%; (1.34), the “TcTryS Activity ± 2σn-1 (%)” value [1] was 76.2 ± 6.6; 4 (1.34) % and the IC50 ([2]; read-out: LiTryS IC50 (estimated)) was ~30 µM. The “% TbTryS inhibition ± 2σn-1” value [3] was 42.4 ± 1.6%; (1.33) and the “TbTryS Activity ± 2σn-1 (%)” value [3] was 57.6 ± 1.6; 4 (1.33) %.
Fc1ccc(CNCCCCCCCCCCCCNCc2ccc(F)cc2)cc1 [EAP1-69] was tested, and the “% TcTryS inhibition ± 2σn-1” value [1] was ~ 50%, the “TcTryS Activity ± 2σn-1 (%)” value [1] was 56.3 ± 3.6; 3% and the “LiTryS Activity ± 2σn-1 (%)” value [2] was 63.2 ± 5.0; 4%. The “TbTryS Activity ± 2σn-1 (%)” value [3] was 81.4 ± 5.6; 4 (1.39) %.
For [O-][n+]1onc2ccccc21 [J09/J34], the “TcTryS Activity ± 2σn-1 (%)” value [1] was 102.2 ± 3.3; 3%, the “LiTryS Activity ± 2σn-1 (%)” value [2] was 84.9 ± 5.5; 4% and the “TbTryS Activity ± 2σn-1 (%)” value [3] was 90.9 ± 5.9; 4%.
Cn1c(=O)c2c(nc(N/N=C\c3ccc(O)cc3O)n2CC(O)COc2ccccc2)n(C)c1=O (stereo not shown) [TC227, (Z)-8-(2-(2,4-dihydroxybenzylidene)hydrazinyl)-7-(2-hydroxy-3-phenoxypropyl)-1,3-dimethyl-1H-purine-2,6(3H,7H)-dione] was tested, and the “% TryS activity (TcTryS)” value [1] was 1.1 ± 3.1; 4% and 0.2 ± 3.1; 4% and 1.1 ± 2.1; 4%, the “TcTryS Activity ± 2σn-1 (%)” value [1] was 161.6 ± 5.3; 3 (0.98) % and the remaining activity at 30 µM [1] was 162%. For the same compound, the activity at 30 µM [2] was 88.5 ± 7.1% and the activity at 30 µM [3] was 102 ± 2.3%.
For CC(C)(C)NC(=O)Nc1ncc2cc(-c3ccc4c(c3)OCO4)c(NC(=O)NC(C)(C)C)nc2n1 [ZEA40], the inhibition at 30 µM [1] was 50%, the inhibition at 30 µM [2] was 15.3 ± 8.3% and the activity at 30 µM [2] was 84.7%. For the same compound, the inhibition at 30 µM [3] was 25.3 ± 5.2% and the activity at 30 µM [3] was 74.7%.
Compound CCNC(=S)Nc1nc2nc(N)ncc2cc1-c1ccc2c(c1)OCO2 [ZEA41] has an inhibition at 30 µM [1] of 50%, an inhibition at 30 µM [2] of 13.6 ± 3.4% and an activity at 30 µM [2] of 86.4%. It also gave an inhibition at 30 µM [3] of 20.9 ± 4.4% and an activity at 30 µM [3] of 79.1%.
With CCCCN(CCCC)C(=O)c1cnc(N)o1 [ZVR103] the “TcTryS Activity ± 2σn-1 (%)” value [1] was 100.0 ± 5.0; 2%, the “LiTryS Activity ± 2σn-1 (%)” value [2] was 99.4 ± 5.6; 4% and the “TbTryS Activity ± 2σn-1 (%)” value [3] was 82.4 ± 4.7; 3%.
CCNC(=S)Nc1nc2nc(NCCCN3CCOCC3)ncc2cc1-c1cc(OC)cc(OC)c1 [ZVR159] was tested, and the “% TryS activity (TcTryS)” value [1] was 1.2 ± 3.1; 3% and 0.2 ± 4.0; 4% and 1.2 ± 5.1; 4%, the “TcTryS Activity ± 2σn-1 (%)” value [1] was 168.6 ± 4.1; 4 (1.10) % and the remaining activity at 30 µM [1] was 169%. The activity at 30 µM [2] was 101 ± 5.8% and the activity at 30 µM [3] was 81.3 ± 1.6%.
With CC1CS(=O)(=O)CCN1/N=C/c1ccc([N+](=O)[O-])o1 (stereo not shown) [nifurtimox, reference compound] the EC50 [4] was 5 µM.
